Data from patent US20120107601A1, “SYSTEMS AND METHODS OF TEMPLATING USING PARTICLES SUCH AS COLLOIDAL PARTICLES” (President and Fellows of Harvard College, priority 2009, published 2012).

Protocol: To ensure that the introduction of the hydrophobic compounds into the template structure would not lead to rearrangement of the particles in the 3D array, some of the templates were sintered prior to the introduction step. Sintering temperatures between 700 and 1200° C. were used to evaluate the conditions needed to form strong interparticle necks without distorting the initial packed structure. Sintering was accomplished under a O2 gas flow of 0.7 L/min (Thermo Scientific Lindberg Blue M Three-Zone Tube Furnace, Cole-Parmer, Vernon Hills, Ill., USA) applying a dwell time period of 2 hours. Introduction of the hydrophobic compounds into the interstices of the packed array of particles was accomplished by first placing the template on a hot plate at a predetermined temperature and afterwards depositing the powdery hydrophobic compound on the top of the heated template. The temperature of the hot plate was adjusted to enable melting of the hydrophobic compound on the template surface. Once in liquid form, the compound was sucked into the interstices of the template structure by capillary forces. […] After fluid introduction, the templates were removed from the hot plate and cooled in air at ambient temperature. The fluid-introduced templates were finally fractured to enable evaluation of the fluid-introduction efficiency in an electron microscope.
Drug-template composites were prepared in the following manner. Templates were prepared from an aqueous colloidal dispersion using the slip-casting method described previously. After slip-casting, the templates were dried in an oven at 110° C. for 12 hours. The templates were then placed on a hotplate at a temperature approximately 5° C. to 10° C. above the melting point of the drug. A small amount of the raw crystalline drug was placed on the surface of the hot template. As the drug was melted, it was drawn into the template by capillary action. These steps were repeated until the template was filled completely. […] The drug-template composites were prepared for dissolution by mild grinding of the sample with a hand-held mortar and pestle.
The samples were prepared for NMR by the following procedure. Unprocessed, crystalline powders (BASF) were dissolved in deuterated solvents at a concentration of approximately 10 mg/mL and filtered through a 0.2 micrometer PTFE filter to remove any solid impurities before running NMR measurements. Drug-silica composites were ground using a hand-held mortar and pestle, dissolved in deuterated solvents at a (drug) concentration of approximately 10 mg/mL and filtered through a 0.2 micrometer PTFE filter to remove the silica template and any additional solid impurities before running NMR measurements. […] Estradiol was dissolved in deuterated DMSO. […] It is, therefore, to be understood that the foregoing embodiments are presented by way of example only and that, within the scope of the appended claims and equivalents thereto, the invention may be practiced otherwise than as specifically described and claimed. The present invention is directed to each individual feature, system, article, material, kit, and/or method described herein. In addition, any combination of two or more such features, systems, articles, materials, kits, and/or methods, if such features, systems, articles, materials, kits, and/or methods are not mutually inconsistent, is included within the scope of the present invention.

Structure (SMILES)	melting without decomposition (introduction of molten compound into templates)	stability upon melting	visible color change upon melting and infiltration into the composites
CC(C)OC(=O)C(C)(C)Oc1ccc(C(=O)c2ccc(Cl)cc2)cc1 [fenofibrate]	can be melted without decomposition	–	–
C[C@]12CC[C@@H]3c4ccc(O)cc4CC[C@H]3[C@@H]1CC[C@@H]2O [estradiol]	–	stable upon melting	no visible color change
CC(=O)N1CCN(c2ccc(OCC3COC(Cn4ccnc4)(c4ccc(Cl)cc4Cl)O3)cc2)CC1 (centres unmarked) [ketoconazole]	–	stable upon melting	no visible color change
CCC(C)n1ncn(-c2ccc(N3CCN(c4ccc(OCC5COC(Cn6cncn6)(c6ccc(Cl)cc6Cl)O5)cc4)CC3)cc2)c1=O (centres unmarked) [itraconazole]	–	stable upon melting	no visible color change
C(=C\c1ccccc1)/CN1CCN(C(c2ccccc2)c2ccccc2)CC1 [cinnarizine]	can be melted without decomposition	stable upon melting	–
Clc1ccccc1C(c1ccccc1)(c1ccccc1)n1ccnc1 [chlotrimazole]	–	stable upon melting	no visible color change
